Source: ChEMBL document CHEMBL4270647, “Recent advances of RAF (rapidly accelerated fibrosarcoma) inhibitors as anti-cancer agents” (Eur J Med Chem, 2018)

Columns and labels:
[1] = target: T1, Serine/threonine-protein kinase B-raf (Homo sapiens, UniProt P15056, V600E); assay: Inhibition of BRAF V600E mutant (unknown origin)
[2] = target: T2, Serine/threonine-protein kinase A-Raf (Homo sapiens, UniProt P10398); assay: Inhibition of ARAF (unknown origin)
T2 sequence (P10398 whole entry): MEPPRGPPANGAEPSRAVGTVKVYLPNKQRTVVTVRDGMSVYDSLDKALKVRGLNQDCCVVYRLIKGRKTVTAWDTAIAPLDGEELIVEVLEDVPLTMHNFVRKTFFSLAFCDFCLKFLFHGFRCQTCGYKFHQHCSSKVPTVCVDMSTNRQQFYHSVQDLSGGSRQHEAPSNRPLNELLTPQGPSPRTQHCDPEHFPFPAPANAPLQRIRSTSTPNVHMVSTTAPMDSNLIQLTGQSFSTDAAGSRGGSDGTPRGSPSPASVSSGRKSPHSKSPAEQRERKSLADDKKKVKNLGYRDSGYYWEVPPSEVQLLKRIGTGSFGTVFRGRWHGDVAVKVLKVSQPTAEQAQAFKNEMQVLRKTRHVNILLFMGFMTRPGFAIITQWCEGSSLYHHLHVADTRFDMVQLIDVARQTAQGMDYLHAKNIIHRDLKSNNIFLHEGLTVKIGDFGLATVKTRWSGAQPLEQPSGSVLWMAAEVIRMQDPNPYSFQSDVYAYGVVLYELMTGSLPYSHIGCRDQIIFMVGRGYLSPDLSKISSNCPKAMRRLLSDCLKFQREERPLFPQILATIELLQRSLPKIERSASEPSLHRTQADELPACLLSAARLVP

[3] = target: T3, Serine/threonine-protein kinase B-raf (Homo sapiens, UniProt P15056); assay: Inhibition of BRAF (unknown origin)
[4] = target: T4, RAF proto-oncogene serine/threonine-protein kinase (Homo sapiens, UniProt P04049); assay: Inhibition of CRAF (unknown origin)
UO-31 = assay: Antiproliferative activity against human UO31 cells; format: functional, cell-based
MCF7 = assay: Antiproliferative activity against human MCF7 cells; format: functional, cell-based
A-375 [5] = assay: Antiproliferative activity against human A375 cells; format: functional, cell-based
MX1 = assay: Antiproliferative activity against human MX1 cells; format: functional, cell-based
HepG2 = assay: Antiproliferative activity against human HepG2 cells; format: functional, cell-based
KETR3 = assay: Antiproliferative activity against human Ketr3 cells; format: functional, cell-based
HT-29 = assay: Antiproliferative activity against human HT-29 cells; format: functional, cell-based
[6] = target: T1, Serine/threonine-protein kinase B-raf; assay: Inhibition of […] BRAF V600E mutant (AA416 to 766 residues (unknown origin) using full length His6-tagged MEK1 as substrate after 20 mins in presence of 33P-gamma-ATP by hotspot kinase assay
[7] = target: T2, Serine/threonine-protein kinase A-Raf; assay: Inhibition of ARAF (unknown origin) after 20 mins in presence of 33P-gamma-ATP by hotspot kinase
[8] = target: T3, Serine/threonine-protein kinase B-raf; assay: Inhibition of BRAF (unknown origin) using full length His6-tagged MEK1 as substrate after 20 mins in presence of 33P-gamma-ATP by hotspot kinase assay
[9] = target: T4, RAF proto-oncogene serine/threonine-protein kinase; assay: Inhibition of CRAF (unknown origin) after 20 mins in presence of 33P-gamma-ATP by hotspot kinase assay
A-375 [10] = assay: Antiproliferative activity against human A375 cells after 72 hrs by CTG solution based luminescence assay; format: functional, cell-based; details: A-375, 72 h
COLO 205 = assay: Antiproliferative activity against human COLO205 cells after 72 hrs by CTG solution based luminescence assay; format: functional, cell-based; details: COLO 205, 72 h
SK-MEL-2 = assay: Antiproliferative activity against human SK-MEL-2 cells after 72 hrs by CTG solution based luminescence assay; format: functional, cell-based; details: SK-MEL-2, 72 h
HCT-116 = assay: Antiproliferative activity against human HCT116 cells; format: functional, cell-based
NCI-H460 = assay: Antiproliferative activity against human NCI-H460 cells; format: functional, cell-based
MKN-45 = assay: Antiproliferative activity against human MKN45 cells; format: functional, cell-based

T1 sequence (P15056 2-766 V600E limits assumed): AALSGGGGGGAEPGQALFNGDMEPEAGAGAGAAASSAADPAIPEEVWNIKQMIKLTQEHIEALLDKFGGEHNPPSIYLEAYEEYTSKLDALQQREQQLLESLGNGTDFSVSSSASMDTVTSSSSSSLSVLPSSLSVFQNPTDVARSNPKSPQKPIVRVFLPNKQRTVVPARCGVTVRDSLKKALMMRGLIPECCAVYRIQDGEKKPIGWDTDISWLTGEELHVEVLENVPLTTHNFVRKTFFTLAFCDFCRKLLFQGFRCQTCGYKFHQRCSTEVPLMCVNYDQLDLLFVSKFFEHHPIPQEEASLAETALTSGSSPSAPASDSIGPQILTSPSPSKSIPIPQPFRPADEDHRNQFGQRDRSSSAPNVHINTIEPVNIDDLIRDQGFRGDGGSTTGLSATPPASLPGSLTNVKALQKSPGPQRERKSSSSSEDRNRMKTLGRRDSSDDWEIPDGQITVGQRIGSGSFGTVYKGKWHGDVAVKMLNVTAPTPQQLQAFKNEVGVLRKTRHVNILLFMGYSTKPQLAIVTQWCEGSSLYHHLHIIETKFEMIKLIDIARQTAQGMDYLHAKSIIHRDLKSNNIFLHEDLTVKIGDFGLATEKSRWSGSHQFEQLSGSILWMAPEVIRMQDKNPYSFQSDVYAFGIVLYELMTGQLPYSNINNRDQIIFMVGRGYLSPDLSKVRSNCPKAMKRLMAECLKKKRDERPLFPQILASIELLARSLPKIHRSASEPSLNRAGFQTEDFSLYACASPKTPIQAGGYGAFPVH
T4 sequence (P04049 whole entry): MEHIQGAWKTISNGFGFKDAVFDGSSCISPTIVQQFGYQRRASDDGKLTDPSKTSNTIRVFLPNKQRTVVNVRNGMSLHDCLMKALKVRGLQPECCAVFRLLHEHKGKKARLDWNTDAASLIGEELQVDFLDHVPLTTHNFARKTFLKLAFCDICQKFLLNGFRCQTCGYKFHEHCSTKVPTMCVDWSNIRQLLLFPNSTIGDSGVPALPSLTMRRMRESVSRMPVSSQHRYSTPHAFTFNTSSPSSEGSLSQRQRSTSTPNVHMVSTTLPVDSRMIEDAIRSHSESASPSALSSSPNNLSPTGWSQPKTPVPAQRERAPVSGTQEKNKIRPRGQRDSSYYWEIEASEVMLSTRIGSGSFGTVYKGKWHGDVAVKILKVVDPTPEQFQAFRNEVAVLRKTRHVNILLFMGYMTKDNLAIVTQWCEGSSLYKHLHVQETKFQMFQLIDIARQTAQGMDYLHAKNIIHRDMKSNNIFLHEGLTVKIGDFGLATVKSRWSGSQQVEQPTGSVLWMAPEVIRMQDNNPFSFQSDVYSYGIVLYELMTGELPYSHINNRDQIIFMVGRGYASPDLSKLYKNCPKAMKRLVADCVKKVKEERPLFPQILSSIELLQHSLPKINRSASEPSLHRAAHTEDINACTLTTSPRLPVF
T3 sequence (P15056 whole entry): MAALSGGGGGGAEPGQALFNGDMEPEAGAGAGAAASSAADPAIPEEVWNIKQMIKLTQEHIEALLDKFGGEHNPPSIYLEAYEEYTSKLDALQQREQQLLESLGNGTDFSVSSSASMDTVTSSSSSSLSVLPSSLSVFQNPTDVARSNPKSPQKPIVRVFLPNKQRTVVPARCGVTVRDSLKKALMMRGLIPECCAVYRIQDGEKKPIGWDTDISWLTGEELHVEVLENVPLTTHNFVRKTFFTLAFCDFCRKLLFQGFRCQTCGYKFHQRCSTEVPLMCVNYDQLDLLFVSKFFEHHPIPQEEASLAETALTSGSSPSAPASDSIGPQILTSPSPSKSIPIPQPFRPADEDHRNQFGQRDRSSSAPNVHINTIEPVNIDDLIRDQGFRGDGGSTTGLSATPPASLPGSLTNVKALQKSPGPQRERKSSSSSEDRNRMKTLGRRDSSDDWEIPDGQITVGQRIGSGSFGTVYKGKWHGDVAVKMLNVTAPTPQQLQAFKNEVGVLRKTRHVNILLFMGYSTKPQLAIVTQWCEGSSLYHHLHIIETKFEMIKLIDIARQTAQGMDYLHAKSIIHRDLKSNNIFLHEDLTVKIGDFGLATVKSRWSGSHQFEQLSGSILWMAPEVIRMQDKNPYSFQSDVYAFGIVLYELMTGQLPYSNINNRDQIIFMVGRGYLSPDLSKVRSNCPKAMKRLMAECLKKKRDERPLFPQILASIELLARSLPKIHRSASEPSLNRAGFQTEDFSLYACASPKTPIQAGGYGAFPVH

Work on `Cc1ccc(C(=O)Nc2ccc(C(F)(F)F)c(Cl)c2)cc1NC(=O)C1(c2cc(NCCCN3CCN(C)CC3)ncn2)CC1` yielded an IC50 [1] of 0.0014 to 0.0122 µM, an IC50 [2] of 0.0253 µM and an IC50 [3] of 0.0297 µM. The IC50 [4] was 0.0133 µM.
For `O=C(NCCNc1nccc(-c2c(-c3ccc(F)cc3)nc3sccn23)n1)c1ccccc1`, the IC50 (UO-31) was 1.75 µM and the IC50 (MCF7) was 1.43 µM.
With `O=S(=O)(c1ccc(F)cc1)N1CCCC(Nc2nccc(-c3c(-c4ccc(F)cc4)nc4sccn34)n2)C1` (stereo unspecified) the IC50 [1] was 0.023 µM.
With `COc1cc2c(cnc3[nH]nc(C4CC4)c32)cc1-c1c(F)ccc(NS(=O)(=O)CCCF)c1F` the IC50 (A-375 [5]) was 0.013 µM and the IC50 [1] was 0.007 µM.
For `CC(NC(=O)c1cccc(-c2ccc(NC(=O)Nc3ccc(C(F)(F)F)c(Cl)c3)cc2)c1)c1ccccc1` (stereo unspecified), the IC50 (A-375 [5]) was 5.17 µM, the IC50 (MX1) was 5.17 to 6.46 µM and the IC50 (HepG2) was 5.17 to 6.46 µM. It also gave an IC50 (KETR3) of 5.17 to 6.46 µM and an IC50 (HT-29) of 5.17 to 6.46 µM.
Compound `CNC(=O)c1cc(Cn2cc(F)c3cc(NC(=O)Nc4ccc(Cl)c(C(F)(F)F)c4)ccc32)ccn1` has an IC50 [3] of 1.36 µM.
Compound `CNC(=O)c1cc(Oc2ccc(NC(=O)Nc3ccc(Cl)c(C(F)(F)F)c3)cc2)ccn1` [SORAFENIB] has an IC50 (A-375 [5]) of 8.27 to 18.8 µM, an IC50 (MX1) of 8.27 to 18.8 µM and an IC50 (HepG2) of 8.27 to 18.8 µM. It also gave an IC50 (KETR3) of 8.27 to 18.8 µM and an IC50 (HT-29) of 3.61 to 18.8 µM.
For `Cc1ccc(C(=O)Nc2ccc(C(F)(F)F)c(Cl)c2)cc1NC(=O)C1(c2ccnc(NCCN3CCN(C)CC3)n2)CC1`, the IC50 [1] was 0.0126 µM, the IC50 [6] was 0.0126 µM and the IC50 [7] was 0.0301 µM. The IC50 [8] was 0.0197 µM, the IC50 [9] was 0.0175 µM and the IC50 (A-375 [10]) was 1.07 µM. The IC50 (COLO 205) was 1.92 µM and the IC50 (SK-MEL-2) was < 0.4 µM.
Compound `O=S(=O)(NCCNc1nccc(-c2c(-c3ccc(F)cc3)nc3sccn23)n1)c1ccc(O)cc1` has an IC50 [1] of 0.019 µM and an IC50 [4] of 0.04 µM.
For `COc1ccc(C(=O)NCCNc2nccc(-c3c(-c4ccc(F)cc4)nc4sccn34)n2)cc1`, the IC50 (UO-31) was 1.42 µM and the IC50 (MCF7) was 2 µM.
For `O=C(NCCNc1nccc(-c2c(-c3ccc(F)cc3)nc3sccn23)n1)Nc1ccccc1`, the IC50 (UO-31) was 2.94 µM and the IC50 (MCF7) was 3.73 µM.
`CNc1cc2c(cn1)cc(-c1ccc(F)c(NC(=O)Nc3cc(C(C)(C)C)no3)c1)c(=O)n2C1CCOC1` (stereo unspecified) gave an IC50 (A-375 [5]) of 0.006 µM, an IC50 [1] of 1 µM and an IC50 (HCT-116) of 0.032 µM.
With `CC(NC(=O)c1ccc(-c2ccc(NC(=O)Nc3ccc(C(F)(F)F)c(Cl)c3)cc2)cc1)c1ccccc1` (stereo unspecified) the IC50 (MX1) was 4.63 µM.
`CNC(=O)c1cc(Cn2ccc3cc(NC(=O)Nc4ccc(Cl)c(C(F)(F)F)c4)ccc32)ccn1` gave an IC50 [3] of 0.51 µM.
`CN(C)CCn1cnnc1-c1cc(Oc2ccc(NC(=O)N/N=C/c3cccc(Cl)c3Cl)cc2F)ccn1` gave an IC50 (NCI-H460) of 0.07 µM and an IC50 (MKN-45) of 0.05 µM.
